# From US10047105B2, “Gyrase inhibitors” (Merck Sharp & Dohme Corp., priority 2009, dated 2018)
# Experiments:
# S. aureus ATCC 13709 = experiment: MIC, antibacterial potency, S. aureus; type: cell-based; details: S. aureus
# S. pneumoniae ATCC 51916 = experiment: MIC, S. pneumoniae; type: cell-based; details: S. pneumoniae
Compound,"MIC, SA (S. aureus ATCC 13709) [µg/mL]",MIC Spn52 (S. pneumoniae ATCC 51916) [µg/mL]
"CCc1[nH]c2nc(Nc3cnc4c(c3)nnn4CC3CC3)nc(N3CC(O)C3)c2c1Br.O=C(O)C(F)(F)F [700,498]",16,> 64
"CCc1[nH]c2nc(Sc3cnc4nccnc4c3)nc(N3CC(CNC(=N)N)C3)c2c1Cl.O=C(O)C(F)(F)F [700,502]",16,> 64
"CCc1[nH]c2nc(Sc3cnc4nccnc4c3)nc(N3CC(NC(=N)N)C3)c2c1Cl.O=C(O)C(F)(F)F [700,503]",16,> 64
"CCc1[nH]c2nc(Sc3cnc4nccnc4c3)nc(N3CC(NC(=O)CN4CCNCC4)C3)c2c1Cl.O=C(O)C(F)(F)F.O=C(O)C(F)(F)F [700,504]",4,32
"CCc1[nH]c2nc(Sc3cnc4nccnc4c3)nc(N3CC(NC(=O)CNC4CCOC4=O)C3)c2c1Cl.O=C(O)C(F)(F)F (centres unmarked) [700,505]",4,32
"CCc1[nH]c2nc(Sc3cnc4nccnc4c3)nc(N3CC(NC(=O)COn4nnc5ccccc54)C3)c2c1Cl [700,506]",≤ 0.5,1
"CCc1[nH]c2nc(Sc3cnc4c(C(C)C)nc(N)nc4c3)nc(OCCn3ccnc3)c2c1Cl.O=C(O)C(F)(F)F [700,507]",> 64,> 64
"CCc1[nH]c2nc(Sc3cnc4nccnc4c3)nc(NCCNC(=O)OC(C)(C)C)c2c1Cl.O=C(O)C(F)(F)F [700,508]",2,4
"CCc1[nH]c2nc(Sc3cnc4nccnc4c3)nc(NCCN)c2c1Cl.O=C(O)C(F)(F)F [700,509]",16,16
"CCc1[nH]c2nc(Sc3cnc4nccnc4c3)nc(NCCN3CCCC3)c2c1Cl.O=C(O)C(F)(F)F [700,510]",> 64,> 64
"CCc1[nH]c2nc(Sc3cnc4nccnc4c3)nc(NCCN3CCNCC3)c2c1Cl.O=C(O)C(F)(F)F.O=C(O)C(F)(F)F [700,511]",> 64,> 64
"CCc1[nH]c2nc(Sc3cnc4nccnc4c3)nc(NCCNC)c2c1Cl.O=C(O)C(F)(F)F [700,512]",> 64,> 64
"CCc1[nH]c2nc(Sc3cnc4nccnc4c3)nc(NCCN(C)C)c2c1Cl.O=C(O)C(F)(F)F [700,513]",> 64,32
"CCc1[nH]c2nc(Sc3cnc4c(N)nc(C)nc4c3)nc(N3CC(O)C3)c2c1Cl.O=C(O)C(F)(F)F [700,514]",≤ 0.5,≤ 0.5
"CCc1[nH]c2nc(Sc3cnc4c(N)nc(C)nc4c3)nc(N3CC(N)C3)c2c1Cl.O=C(O)C(F)(F)F [700,515]",1,1
"CCc1[nH]c2nc(Sc3cnc4nccnc4c3)nc(N3CC(CNC(=O)C4CC4)C3)c2c1Cl [700,516]",≤ 0.5,1
"CCc1[nH]c2nc(Sc3cnc4nccnc4c3)nc(N3CC(CNC(=O)C4CCC4)C3)c2c1Cl [700,517]",≤ 0.5,2
"CCc1[nH]c2nc(Sc3cnc4nccnc4c3)nc(N3CC(CNC(=O)CCN4CCCCC4)C3)c2c1Cl [700,518]",4,4
"CCc1[nH]c2nc(Sc3cnc4nccnc4c3)nc(N3CC(CNC(=O)CN4C(=O)CSC4=O)C3)c2c1Cl [700,519]",1,1
"CCc1[nH]c2nc(Sc3cnc4nccnc4c3)nc(N3CC(CNC(=O)[C@@H]4CCC(=O)N4)C3)c2c1Cl [700,520]",8,16
"CCc1[nH]c2nc(Sc3cnc4nccnc4c3)nc(N3CC(CNC(=O)C4CCC(O)CC4)C3)c2c1Cl (centres unmarked) [700,521]",1,2
"CCc1[nH]c2nc(Sc3cnc4nccnc4c3)nc(N3CC(CNC(=O)C4CCCO4)C3)c2c1Cl (centres unmarked) [700,522]",≤ 0.5,2
"CCc1[nH]c2nc(Sc3cnc4nccnc4c3)nc(N3CC(CNC(=O)COCCOCCOC)C3)c2c1Cl [700,523]",2,4
"CCc1[nH]c2nc(Sc3cnc4nccnc4c3)nc(N3CC(CNC(=O)c4cn(C)nc4C(F)(F)F)C3)c2c1Cl [700,524]",≤ 0.5,≤ 0.5
"CCc1[nH]c2nc(Nc3cnc4c(c3)nnn4C(C)C)nc(N3CC(O)C3)c2c1Cl.O=C(O)C(F)(F)F [700,525]",> 64,> 64
"CCc1[nH]c2nc(Nc3cnc4c(c3)nnn4C(C)C)nc(N3CC(NC(=O)O)C3)c2c1Cl.O=C(O)C(F)(F)F [700,526]",8,> 64

Compound,"MIC, SA (S. aureus ATCC 13709) [µg/mL]",MIC Spn52 (S. pneumoniae ATCC 51916) [µg/mL]
"CCc1[nH]c2nc(Nc3cnc4c(c3)nnn4C(C)C)nc(N3CC(N)C3)c2c1Cl.O=C(O)C(F)(F)F.O=C(O)C(F)(F)F [700,527]",16,8
"CCc1[nH]c2nc(Nc3cnc4c(c3)nnn4C(C)C)nc(N3CC[C@@H](N(C)C)C3)c2c1Cl.O=C(O)C(F)(F)F.O=C(O)C(F)(F)F [700,528]",8,8
"CCc1[nH]c2nc(Nc3ccc4c(N)nc(C)nc4c3)nc(N3CC(N)C3)c2c1Cl.O=C(O)C(F)(F)F.O=C(O)C(F)(F)F [700,531]",8,4
"CCc1[nH]c2nc(Nc3cnc4c(c3)nnn4C(C)C)nc(N(C)CCO)c2c1Cl.O=C(O)C(F)(F)F [700,534]",2,> 32
"CCc1[nH]c2nc(Nc3cnc4c(c3)nnn4C(C)C)nc(OC)c2c1Br.O=C(O)C(F)(F)F [700,535]",≤ 0.5,4
"CCc1nc2c(N3CC(N)C3)nc(Sc3cnc4c(N)nc(C)nc4c3)nc2[nH]1 [700,538]",> 16,> 16
"CCc1[nH]c2nc(Sc3cnc4nccnc4c3)nc(N3CC(NCc4cccnc4)C3)c2c1Cl [700,539]",≤ 0.5,1
"CCc1[nH]c2nc(Sc3cnc4nccnc4c3)nc(N3CCC(N)C3)c2c1Cl (centres unmarked) [700,540]",1,2
"CCc1[nH]c2nc(Sc3cnc4nccnc4c3)nc(N3CCC(N)CC3)c2c1Cl [700,541]",4,4
"CCc1[nH]c2nc(Sc3cnc4nccnc4c3)nc(-n3ccnc3)c2c1Cl [700,542]",2,8
"CCOC(=O)Cc1nc(N2CCC(O)C2)c2c(Cl)c(CC)[nH]c2n1 (centres unmarked) [700,544]",> 64,> 64
"CCc1[nH]c2nc(Sc3cc(=O)n(C)c(=O)[nH]3)nc(N3CC(N)C3)c2c1Br.O=C(O)C(F)(F)F [700,545]",2,4
"CCc1[nH]c2nc(Sc3cnc4nccnc4c3)nc(N(C)Cc3cccnc3)c2c1Cl.O=C(O)C(F)(F)F [700,546]",4,16
"CCc1[nH]c2nc(Sc3cnc4nccnc4c3)nc(N3CCC4(CCCN4)C3)c2c1Cl (centres unmarked) [700,547]",4,4
"CCc1[nH]c2nc(Sc3cnc4nccnc4c3)nc(N3CC4CNC4C3)c2c1Cl.O=C(O)C(F)(F)F (centres unmarked) [700,548, 7-(4-(3,6-diazabicyclo[3.2.0]heptan-3-yl)-5-chloro-6-ethyl-7H-pyrrolo[2,3-d]pyrimidin-2-ylthio)pyrido[3,2-b]pyrazine]",≤ 0.5,2
"CCc1[nH]c2nc(Sc3cnc4nccnc4c3)nc(N3CC[C@H](NC)C3)c2c1Cl.O=C(O)C(F)(F)F [700,549]",4,4
"CCc1[nH]c2nc(Nc3cnc4c(c3)nnn4C(C)C)nc(OC)c2c1Cl.O=C(O)C(F)(F)F [700,550]",1,8
"CCc1[nH]c2nc(Oc3cncnc3)nc(Oc3cncnc3)c2c1Cl.O=C(O)C(F)(F)F [700,551]",2,4
"CCc1[nH]c2nc(Oc3cncnc3)nc(Oc3cncnc3)c2c1Br.O=C(O)C(F)(F)F [700,552]",≤ 0.5,2
"CCc1[nH]c2nc(Sc3cnc4nccnc4c3)nc(OS(=O)(=O)c3ccc(C)cc3)c2c1Cl [700,558]",8,> 64
"CCc1[nH]c2nc(Sc3nc(C(=O)O)c(Cl)s3)nc(N3CCC(N)C3)c2c1Cl (centres unmarked) [700,559]",> 64,> 64
"CCc1[nH]c2nc(Sc3cccnc3)nc(N3CC(N)C3)c2c1Cl [700,560]",8,32
"CCc1[nH]c2nc(Sc3cnc(Oc4cccnc4)nc3)nc(N3CC(N)C3)c2c1Cl [700,561]",16,32
"CCc1[nH]c2nc(Sc3ccc[n+]([O-])c3)nc(N3CC(N)C3)c2c1Cl [700,562]",16,64
"CCc1[nH]c2nc(Sc3cnc4nccnc4c3)nc(N3CC4CCNC4C3)c2c1Cl.O=C(O)C(F)(F)F (centres unmarked) [700,563]",1,2
"CCc1[nH]c2nc(Sc3cnc4nccnc4c3)nc(N3CCC4CNCC43)c2c1Cl.O=C(O)C(F)(F)F (centres unmarked) [700,564]",8,16
